# Biological target: T1, DNA polymerase theta (POLQ) (2-894)
# T1 construct: 2-894
# Assay: ATPase Assay
# Experimental: POLθ-mediated ATP hydrolysis was measured using the ADP-Glo Kinase Assay (Promega Corporation, Madison, WI). Reactions were performed in white 384-well small-volume microplates (Greiner Bio-One, Frickenhausen, Germany) using a total volume of 15 μL. The ATPase reaction consisted of 1 nM biotinylated Avi-POLθ[2-894], 5 nM of a 50 nucleotide poly-thymine repeat single-stranded DNA (PolyT(50) ssDNA), and 100 μM ATP in 5 μL of assay buffer (50 mM Tris, pH 7.5, 80 mM KCl, 10 MgCl2, 1 mM DTT, 5% glycerol, 0.01% BSA, 0.01% Tween-20). Inhibition of POLΘATPase activity was determined by preparing 11-point serial dilutions of the test compounds in 100% DMSO, then transferring 30 nL of the compounds into the ATPase reaction using an Echo acoustic liquid handler (Beckman Coulter, Brea, CA). DMSO-treated wells containing either all of the reaction components (1 nM biotinylated Avi-POLθ[2-894], 5 nM PolyT(50) ssDNA, 100 μM ATP) or with assay buffer substituted for the biotinylated Avi-POLθ[2-894](0 nM biotinylated Avi-POLθ[2-894], 5 nM PolyT(50) ssDNA, 100 μM ATP) were used to define the maximum and minimum response in the assay. Following a one-hour incubation at ambient temperature, 5 μL of ADP-Glo Reagent was added to the ATPase reaction, and this mixture was allowed to incubate at ambient temperature for an additional hour. Lastly, 5 μL of Kinase Detection Reagent was added, followed by a third one-hour incubation at ambient temperature. The reagent concentrations listed represent the amounts only in the 5 μL ATPase reaction volume.
row,IC50 [nM],SMILES
1,8,"COc1cnc(Cl)cc1-c1cc(C)ncc1C(=O)Nc1nc2c(s1)CN(C(=O)C1CCCC(OC(F)(F)F)C1)C2 (racemic) [US20250230171, Compound 485]"
2,32.5,"COc1cnc(Cl)cc1-c1cc(C)ncc1C(=O)Nc1nc2c(s1)CN(C(=O)C1CC13CC3)C2 (racemic) [US20250230171, Compound 535]"
3,8,"COc1cnc(Cl)cc1-c1cc(C)ncc1C(=O)Nc1nc2c(s1)CN(C(=O)c1ccc(OC(F)F)nc1)C2 [US20250230171, Compound 32]"
4,8,"COc1cnc(Cl)cc1-c1cc(C)ncc1C(=O)Nc1nc2c(s1)CN(C(=O)c1ccc(C(F)F)c(Cl)c1)C2 [US20250230171, Compound 381]"
5,8,"COc1cnc(Cl)cc1-c1cc(C)ncc1C(=O)Nc1nc2c(s1)CN(C(=O)c1ccc(C(F)F)cc1F)C2 [US20250230171, Compound 382]"
6,8,"COc1cnc(Cl)cc1-c1cc(C)ncc1C(=O)Nc1nc2c(s1)CN(C(=O)c1ccc(C(F)F)nc1OC)C2 [US20250230171, Compound 384]"
7,8,"COc1cnc(Cl)cc1-c1cc(C)ncc1C(=O)Nc1nc2c(s1)CN(C(=O)c1ncc(C(F)F)cn1)C2 [US20250230171, Compound 400]"
8,8,"COc1cnc(Cl)cc1-c1cc(C)ncc1C(=O)Nc1nc2c(s1)CN(C(=O)c1ccc(C(F)F)c(F)c1)C2 [US20250230171, Compound 403]"
9,8,"COc1cnc(Cl)cc1-c1cc(C)ncc1C(=O)Nc1nc2c(s1)CN(C(=O)c1c(Cl)c(C)nn1C)C2 [US20250230171, Compound 408]"
10,8,"COc1cnc(Cl)cc1-c1cc(C)ncc1C(=O)Nc1nc2c(s1)CN(C(=O)c1ccc(F)c(Cl)n1)C2 [US20250230171, Compound 411]"
11,8,"COc1cnc(Cl)cc1-c1cc(C)ncc1C(=O)Nc1nc2c(s1)CN(C(=O)c1ncc(C(F)F)cc1OC)C2 [US20250230171, Compound 412]"
12,8,"COc1cnc(Cl)cc1-c1cc(C)ncc1C(=O)Nc1nc2c(s1)CN(C(=O)c1nc(C(F)F)ccc1OC)C2 [US20250230171, Compound 415]"
13,8,"COc1cnc(Cl)cc1-c1cc(C)ncc1C(=O)Nc1nc2c(s1)CN(C(=O)c1cnc(C)c(C)n1)C2 [US20250230171, Compound 416]"
14,8,"COc1cnc(Cl)cc1-c1cc(C)ncc1C(=O)Nc1nc2c(s1)CN(C(=O)C1CC3(CC(C)C3)C1)C2 (stereo not drawn) [US20250230171, Compound 418]"
15,8,"COc1ccc(C#N)cc1-c1cc(C)ncc1C(=O)Nc1nc2c(s1)CN(C(=O)c1cccc(Cl)c1OC)C2 [US20250230171, Compound 422]"
16,8,"COc1cnc(Cl)cc1-c1cc(C)ncc1C(=O)Nc1nc2c(s1)CN(C(=O)c1nccc(C(F)(F)F)n1)C2 [US20250230171, Compound 431]"
17,8,"COc1ccc(C#N)cc1-c1cc(C)ncc1C(=O)Nc1nc2c(s1)CN(C(=O)c1cc(C(F)F)ccc1F)C2 [US20250230171, Compound 433]"
18,8,"COc1cnc(Cl)cc1-c1cc(C)ncc1C(=O)Nc1nc2c(s1)CN(C(=O)c1nn(C)cc1F)C2 [US20250230171, Compound 435]"
19,8,"COc1cnc(Cl)cc1-c1cc(C)ncc1C(=O)Nc1nc2c(s1)CN(C(=O)c1cc(Cl)nn1C)C2 [US20250230171, Compound 436]"
20,8,"COc1cnc(Cl)cc1-c1cc(C)ncc1C(=O)Nc1nc2c(s1)CN(C(=O)c1nccnc1OC)C2 [US20250230171, Compound 437]"
21,8,"COc1ccc(C#N)cc1-c1cc(C)ncc1C(=O)Nc1nc2c(s1)CN(C(=O)c1ccc(C(F)F)cc1)C2 [US20250230171, Compound 438]"
22,8,"COc1cnc(C(=O)N2Cc3nc(NC(=O)c4cnc(C)cc4-c4cc(Cl)ncc4OC)sc3C2)c(OC)n1 [US20250230171, Compound 440]"
23,8,"COc1cnc(Cl)cc1-c1cc(C)ncc1C(=O)Nc1nc2c(s1)CN(C(=O)c1ccnc(C(F)(F)F)n1)C2 [US20250230171, Compound 443]"
24,8,"COc1cnc(Cl)cc1-c1cc(C)ncc1C(=O)Nc1nc2c(s1)CN(C(=O)c1cnc(C(F)F)c(Cl)c1)C2 [US20250230171, Compound 445]"
25,8,"COc1cnc(Cl)cc1-c1cc(C)ncc1C(=O)Nc1nc2c(s1)CN(C(=O)c1nc(Cl)ccc1C)C2 [US20250230171, Compound 450]"
26,8,"COc1cnc(Cl)cc1-c1cc(C)ncc1C(=O)Nc1nc2c(s1)CN(C(=O)c1ccc(C(F)F)nn1)C2 [US20250230171, Compound 454]"
27,8,"COc1cnc(Cl)cc1-c1cc(C)ncc1C(=O)Nc1nc2c(s1)CN(C(=O)c1cccc3nccn13)C2 [US20250230171, Compound 455]"

row,IC50 [nM],SMILES
1,8,"COc1cnc(Cl)cc1-c1cc(C)ncc1C(=O)Nc1nc2c(s1)CN(C(=O)C1CC3(CC(OC(F)F)C3)C1)C2 (stereo not drawn) [US20250230171, Compound 456]"
2,8,"COc1cnc(Cl)cc1-c1cc(C)ncc1C(=O)Nc1nc2c(s1)CN(C(=O)c1nn(C)cc1N)C2 [US20250230171, Compound 458]"
3,8,"COc1cnc(Cl)cc1-c1cc(C)ncc1C(=O)Nc1nc2c(s1)CN(C(=O)c1ncccc1Cl)C2 [US20250230171, Compound 459]"
4,8,"COc1cnc(Cl)cc1-c1cc(C)ncc1C(=O)Nc1nc2c(s1)CN(C(=O)c1cccn3cncc13)C2 [US20250230171, Compound 462]"
5,8,"COc1cnc(Cl)cc1-c1cc(C)ncc1C(=O)Nc1nc2c(s1)CN(C(=O)c1cnc(C(F)F)cc1C)C2 [US20250230171, Compound 466]"
6,8,"COc1cc(Cl)ccc1C(=O)N1Cc2nc(NC(=O)c3cnc(C)cc3-c3cc(C#N)ccc3OC)sc2C1 [US20250230171, Compound 467]"
7,8,"COc1ccc2oc(C(=O)N3Cc4nc(NC(=O)c5cnc(C)cc5-c5cc(Cl)ncc5OC)sc4C3)nc2c1 [US20250230171, Compound 472]"
8,8,"COc1cnc(Cl)cc1-c1cc(C)ncc1C(=O)Nc1nc2c(s1)CN(C(=O)C1CC3(CC(F)C3)C1)C2 (stereo not drawn) [US20250230171, Compound 473]"
9,8,"COc1cnc(Cl)cc1-c1cc(C)ncc1C(=O)Nc1nc2c(s1)CN(C(=O)c1c(C)ncn1C)C2 [US20250230171, Compound 476]"
10,8,"COc1cnc(Cl)cc1-c1cc(C)ncc1C(=O)Nc1nc2c(s1)CN(C(=O)c1cnc(C(F)(F)F)nc1C)C2 [US20250230171, Compound 477]"
11,8,"COc1cnc(Cl)cc1-c1cc(C)ncc1C(=O)Nc1nc2c(s1)CN(C(=O)c1nc(C)ncc1Cl)C2 [US20250230171, Compound 479]"
12,8,"COc1ncc(Cl)c(C(=O)N2Cc3nc(NC(=O)c4cnc(C)cc4-c4cc(Cl)ncc4OC)sc3C2)n1 [US20250230171, Compound 481]"
13,8,"COc1cnc(Cl)cc1-c1cc(C)ncc1C(=O)Nc1nc2c(s1)CN(C(=O)c1cc(Cl)cnc1OC)C2 [US20250230171, Compound 486]"
14,8,"COc1cnc(Cl)cc1-c1cc(C)ncc1C(=O)Nc1nc2c(s1)CN(C(=O)c1nc(C)ncc1OC)C2 [US20250230171, Compound 493]"
15,8,"COc1cnc(Cl)cc1-c1cc(C)ncc1C(=O)Nc1nc2c(s1)CN(C(=O)c1cccc(C)n1)C2 [US20250230171, Compound 497]"
16,8,"COc1cnc(Cl)cc1-c1cc(C)ncc1C(=O)Nc1nc2c(s1)CN(C(=O)c1nc(C)ccc1Cl)C2 [US20250230171, Compound 498]"
17,8,"COc1cnc(Cl)cc1-c1cc(C)ncc1C(=O)Nc1nc2c(s1)CN(C(=O)c1ncc(C(C)(F)F)cc1Cl)C2 [US20250230171, Compound 501]"
18,8,"COc1cnc(Cl)cc1-c1cc(C)ncc1C(=O)Nc1nc2c(s1)CN(C(=O)c1ccc(OC)c3cncn13)C2 [US20250230171, Compound 502]"
19,8,"COc1ccc(C#N)cc1-c1cc(C)ncc1C(=O)Nc1nc2c(s1)CN(C(=O)c1ccc(OC(F)F)cc1)C2 [US20250230171, Compound 503]"
20,8,"COc1cnc(Cl)cc1-c1cc(C)ncc1C(=O)Nc1nc2c(s1)CN(C(=O)c1cc(Cl)cc(C)n1)C2 [US20250230171, Compound 505]"
21,8,"COc1cnc(Cl)cc1-c1cc(C)ncc1C(=O)Nc1nc2c(s1)CN(S(=O)(=O)c1ccccn1)C2 [US20250230171, Compound 507]"
22,8,"COc1cnc(Cl)cc1-c1cc(C)ncc1C(=O)Nc1nc2c(s1)CN(C(=O)c1cnn(C(F)(F)F)c1)C2 [US20250230171, Compound 513]"
23,8,"COc1cnc(Cl)cc1-c1cc(C)ncc1C(=O)Nc1nc2c(s1)CN(C(=O)c1ncncc1OC)C2 [US20250230171, Compound 514]"
24,8,"COc1cnc(Cl)cc1-c1cc(C)ncc1C(=O)Nc1nc2c(s1)CN(C(=O)c1c(C#N)cnn1C)C2 [US20250230171, Compound 515]"
25,8,"COc1ccc(C(=O)N2Cc3nc(NC(=O)c4cnc(C)cc4-c4cc(C#N)ccc4OC)sc3C2)c(Cl)c1 [US20250230171, Compound 516]"
26,8,"COc1ccc(C#N)cc1-c1cc(C)ncc1C(=O)Nc1nc2c(s1)CN(C(=O)c1ccc(C(F)F)cc1Cl)C2 [US20250230171, Compound 519]"

# Source: BindingDB's records for patent US20250230171 (Moma Therapeutics, 2025)
